Consider 23 molecules from patent US8071768B2, “Alkylquinoline and alkylquinazoline kinase modulators” (Janssen Pharmaceutica, N.V., priority 2005, dated 2011).

Bounds are passed on as bounds.

In this experiment the target is T1, TrkB (Homo sapiens, UniProt Q16620).
T1 construct: purchased Upstate 14-507M
T1 sequence (Q16620 32-822): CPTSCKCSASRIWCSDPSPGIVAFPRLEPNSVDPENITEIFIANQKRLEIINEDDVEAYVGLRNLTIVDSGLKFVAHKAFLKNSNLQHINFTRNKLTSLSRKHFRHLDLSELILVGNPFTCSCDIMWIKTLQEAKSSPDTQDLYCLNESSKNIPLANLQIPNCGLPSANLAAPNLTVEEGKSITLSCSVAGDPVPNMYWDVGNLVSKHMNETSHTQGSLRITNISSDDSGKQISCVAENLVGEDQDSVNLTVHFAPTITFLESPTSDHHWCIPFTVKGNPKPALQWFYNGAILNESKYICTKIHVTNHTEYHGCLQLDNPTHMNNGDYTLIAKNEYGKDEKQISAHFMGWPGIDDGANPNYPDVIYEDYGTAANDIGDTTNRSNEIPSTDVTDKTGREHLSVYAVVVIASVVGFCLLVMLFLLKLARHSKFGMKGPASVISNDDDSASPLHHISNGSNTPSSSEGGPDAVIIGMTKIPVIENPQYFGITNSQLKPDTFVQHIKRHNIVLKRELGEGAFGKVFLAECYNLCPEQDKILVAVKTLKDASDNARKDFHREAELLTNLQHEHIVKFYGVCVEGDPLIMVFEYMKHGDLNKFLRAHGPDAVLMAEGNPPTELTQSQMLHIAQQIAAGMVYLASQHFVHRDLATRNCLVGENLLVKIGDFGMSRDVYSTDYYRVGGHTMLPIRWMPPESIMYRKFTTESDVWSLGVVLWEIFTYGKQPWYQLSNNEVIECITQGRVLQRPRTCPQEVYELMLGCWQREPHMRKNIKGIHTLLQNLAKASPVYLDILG
Briefly: Trk B Fluorescence Polarization Kinase Assay. As to conditions: uncertainty ±10%. The class given is biochemical. As to the method: Trk B Fluorescence Polarization Kinase Assay (TrkB IC50 Data)
The compounds of the present invention are also specific inhibitors of TrkB. Selection of preferred compounds of Formula I for use as TrkB inhibitors was performed in the following manner. The TrkB assay utilized the fluorescein-labeled phosphopeptide and the anti-phosphotyrosine antibody included in the Panvera Phospho-Tyrosine Kinase Kit (Green) supplied by Invitrogen. When TrkB phosphorylated poly Glu4Tyr, the fluorescein-labeled phosphopeptide was displaced from the anti-phosphotyrosine antibody by the phosphorylated poly Glu4Tyr, thus decreasing the FP value. The TrkB kinase reaction was incubated at room temperature for 30 minutes under the following conditions: 50 nM TrkB (Upstate, catalog # 14-507M), 20 ug/mL poly Glu4Tyr, 150 uM ATP, 5 mM MgCl2, 1% compound in DMSO. The kinase reaction was stopped with the addition of EDTA. The fluorescein-labeled phosphopeptide and the anti-phosphotyrosine antibody were added and incubated for 30 minutes at room temperature. Data points were an average of triplicate samples. Inhibition and IC50 data analysis were done with GraphPad Prism using a non-linear regression fit with a multiparamater, sigmoidal dose-response (variable slope) equation.
Consider `COCCCOc1ccc2c(C3CCN(C(=O)Nc4ccc(N5CCOCC5)cc4)CC3)ncnc2c1` [Compound 78, 4-[7-(3-Methoxy-propoxy)-quinazolin-4-yl]-piperidine-1-carboxylic acid (4-morpholin-4-yl-phenyl)-amide], for which half-maximal inhibition (IC50) was put at 18400 nM. In other words, the double-digit micromolar range.

As to `COc1cc2ncnc(C3CCN(C(=O)Nc4ccc(CO)cc4)CC3)c2cc1OC` [Compound 22, 4-(6,7-Dimethoxy-quinazolin-4-yl)-piperidine-1-carboxylic acid (4-hydroxymethyl-phenyl)-amide], the IC50 (as a rule, the concentration that gives 50% inhibition) is 17700 nM.

On to `CC(C)Oc1ccc(NC(=O)N2CCC(c3ccnc4ccccc34)CC2)cc1` [Compound 6, 4-Quinolin-4-yl-piperidine-1-carboxylic acid (4-isopropoxy-phenyl)-amide], for which inhibition was half-maximal at 800 nM (IC50). With `CN1CCN(c2ccc3c(C4CCN(C(=O)Nc5ccc(N6CCCC6)nc5)CC4)ncnc3c2)CC1` [Compound 160, 4-[7-(4-Methyl-piperazin-1-yl)-quinazolin-4-yl]-piperidine-1-carboxylic acid (6-pyrrolidin-1-yl-pyridin-3-yl)-amide], 6450 nM corresponded to half-maximal inhibition (IC50). As for `O=C(Nc1ccc(N2CCOCC2)nc1)N1CCC(c2ncnc3cc(OCCN4CCOC4=O)ccc23)CC1` [Compound 91, 4-{7-[2-(2-Oxo-oxazolidin-3-yl)-ethoxy]-quinazolin-4-yl}-piperidine-1-carboxylic acid (6-morpholin-4-yl-pyridin-3-yl)-amide], the figure is 1900 nM; as for `CN1CCN(CCOc2ccc3c(C4CCN(C(=O)Nc5ccc(N6CCOCC6)cc5)CC4)ncnc3c2)CC1` [Compound 156, 4-{7-[2-(4-Methyl-piperazin-1-yl)-ethoxy]-quinazolin-4-yl}-piperidine-1-carboxylic acid (4-morpholin-4-yl-phenyl)-amide], over 21000 nM; as for `COc1cc2ncnc(C3CCN(C(=O)Nc4ccc(C(C)(C)C)cc4)CC3)c2cc1OC` [Compound 53, 4-(6,7-Dimethoxy-quinazolin-4-yl)-piperidine-1-carboxylic acid (4-tert-butyl-phenyl)-amide], 1100 nM. As for `CN(C)[C@@H]1CCN(c2ccc3c(C4CCN(C(=O)Nc5ccc(N6CCCC6)cc5)CC4)ncnc3c2)C1` [Compound 149, (R)-4-[7-(3-Dimethylamino-pyrrolidin-1-yl)-quinazolin-4-yl]-piperidine-1-carboxylic acid (4-pyrrolidin-1-yl-phenyl)-amide], the figure is 7260 nM; as for `CN1CCC(COc2ccc3c(C4CCN(C(=O)Nc5ccc(N6CCOCC6)nc5)CC4)ncnc3c2)CC1` [Compound 108, 4-[7-(1-Methyl-piperidin-4-ylmethoxy)-quinazolin-4-yl]-piperidine-1-carboxylic acid (6-morpholin-4-yl-pyridin-3-yl)-amide], 5400 nM. Consider `O=C1CCCN1CCCOc1ccc2c(C3CCN(C(=O)Nc4cnc(N5CCCC5)nc4)CC3)ncnc2c1` [Compound 90, 4-{7-[3-(2-Oxo-pyrrolidin-1-yl)-propoxy]-quinazolin-4-yl}-piperidine-1-carboxylic acid (2-pyrrolidin-1-yl-pyrimidin-5-yl)-amide], for which the IC50 worked out at 300 nM. `COc1cc2ncnc(C3CCN(C(=O)Nc4ccc(-n5ccnc5)cc4)CC3)c2cc1OC` [Compound 3, 4-(6,7-Dimethoxy-quinazolin-4-yl)-piperidine-1-carboxylic acid (4-imidazol-1-yl-phenyl)-amide] had an IC50 of over 42000 nM. For `COc1cc2ncnc(C3CCN(C(=O)Nc4ccc(OC(C)C)nc4)CC3)c2cc1OC` [Compound 56, 4-(6,7-Dimethoxy-quinazolin-4-yl)-piperidine-1-carboxylic acid (6-isopropoxy-pyridin-3-yl)-amide], the IC50 is 400 nM. This lies in the sub-micromolar range.

`CC(C)Oc1ccc(NC(=O)N2CCC(c3ncnc4cc(OCCN5CCCCC5)ccc34)CC2)cc1` [Compound 34, 4-(7-(2-Piperindin-1-yl-ethoxy)-quinazolin-4-yl)-piperidine-1-carboxylic acid (4-isopropoxy-phenyl)-amide] registered an IC50 of 2800 nM. With `O=C(Nc1ccc(N2CCOCC2)cc1)N1CCC(c2ncnc3cc(OCCCN4CCC[C@H]4CO)ccc23)CC1` [Compound 119, (S)-4-{7-[3-(2-Hydroxymethyl-pyrrolidin-1-yl)-propoxy]-quinazolin-4-yl}-piperidine-1-carboxylic acid (4-morpholin-4-yl-phenyl)-amide], the IC50 is over 20000 nM. Molecule `O=C(Nc1ccc(N2CCOCC2)cc1)N1CCC(c2ncnc3cc(OCCN4CCOC4=O)ccc23)CC1` [Compound 148, 4-{7-[2-(2-Oxo-oxazolidin-3-yl)-ethoxy]-quinazolin-4-yl}-piperidine-1-carboxylic acid (4-morpholin-4-yl-phenyl)-amide] came in with an IC50 of 26700 nM.

On to `CC(=O)N1CCN(CCOc2ccc3c(C4CCN(C(=O)Nc5ccc(N6CCOCC6)cc5)CC4)ncnc3c2)CC1` [Compound 97, 4-{7-[2-(4-Acetyl-piperazin-1-yl)-ethoxy]-quinazolin-4-yl}-piperidine-1-carboxylic acid (4-morpholin-4-yl-phenyl)-amide], for which the IC50 was over 20000 nM.

`CC(C)c1ccc(NC(=O)N2CCC(c3ncnc4cc(Cl)ccc34)CC2)cc1` [Compound 30, 4-(7-Chloro-quinazolin-4-yl)-piperidine-1-carboxylic acid (4-isopropyl-phenyl)-amide] showed an IC50 of 700 nM. With `COC[C@H]1CCCN1c1ccc2c(C3CCN(C(=O)Nc4ccc(N5CCOCC5)cc4)CC3)ncnc2c1` [Compound 130, (R)-4-[7-(2-Methoxymethyl-pyrrolidin-1-yl)-quinazolin-4-yl]-piperidine-1-carboxylic acid (4-morpholin-4-yl-phenyl)-amide], the IC50 is over 42000 nM. In the case of `CC(=O)N1CCN(CCCOc2ccc3c(C4CCN(C(=O)Nc5ccc(N6CCOCC6)cc5)CC4)ncnc3c2)CC1` [Compound 117, 4-{7-[3-(4-Acetyl-piperazin-1-yl)-propoxy]-quinazolin-4-yl}-piperidine-1-carboxylic acid (4-morpholin-4-yl-phenyl)-amide], the IC50 was over 20000 nM. `CN1CCC[C@H]1COc1ccc2c(C3CCN(C(=O)Nc4ccc(N5CCCC5)cc4)CC3)ncnc2c1` [Compound 151, (S)-4-[7-(1-Methyl-pyrrolidin-2-ylmethoxy)-quinazolin-4-yl]-piperidine-1-carboxylic acid (4-pyrrolidin-1-yl-phenyl)-amide] came in with an IC50 of over 42000 nM. For the molecule `CN1CCN(CCCOc2ccc3c(C4CCN(C(=O)Nc5ccc(N6CCCC6)nc5)CC4)ncnc3c2)CC1` [Compound 104, 4-{7-[3-(4-Methyl-piperazin-1-yl)-propoxy]-quinazolin-4-yl}-piperidine-1-carboxylic acid (6-pyrrolidin-1-yl-pyridin-3-yl)-amide], the half-maximal inhibitory concentration (IC50) amounted to 800 nM. Consider `CC(C)Oc1ccc(NC(=O)N2CCC(c3ncnc4ccccc34)CC2)cc1` [Compound 8, 4-Quinazolin-4-yl-piperidine-1-carboxylic acid (4-isopropoxy-phenyl)-amide], for which the IC50 was 2400 nM. As for `CC(C)Oc1ccc(NC(=O)N2CCC(c3ncnc4cc(OCCCNS(C)(=O)=O)ccc34)CC2)cc1` [Compound 65, 4-[7-(3-Methanesulfonylamino-propoxy)-quinazolin-4-yl]-piperidine-1-carboxylic acid (4-isopropoxy-phenyl)-amide], the figure is 500 nM.
